Measured values as given in patent publication US9884067B2, “Androgen receptor down-regulating agents and uses thereof” (UNIVERSITY OF MARYLAND EASTERN SHORE, priority 2013, dated 2018).
Values joined by “and” are separate entries in the source; they are usually repeats but may differ in a detail not shown here. Equal entries are not always repeated. Where two headings read alike, the source gives them in different places.

Legend:
[1] = Solubility in ethanol or DMSO; format: physicochemical
human CYP17A1 (CYP171dH) = target: T1, human CYP17A1 (CYP171dH) (Homo sapiens, UniProt P05093); test: CYP17 inhibition studies; format: biochemical
T1 sequence (P05093 with tags, fused parts or gaps limits assumed): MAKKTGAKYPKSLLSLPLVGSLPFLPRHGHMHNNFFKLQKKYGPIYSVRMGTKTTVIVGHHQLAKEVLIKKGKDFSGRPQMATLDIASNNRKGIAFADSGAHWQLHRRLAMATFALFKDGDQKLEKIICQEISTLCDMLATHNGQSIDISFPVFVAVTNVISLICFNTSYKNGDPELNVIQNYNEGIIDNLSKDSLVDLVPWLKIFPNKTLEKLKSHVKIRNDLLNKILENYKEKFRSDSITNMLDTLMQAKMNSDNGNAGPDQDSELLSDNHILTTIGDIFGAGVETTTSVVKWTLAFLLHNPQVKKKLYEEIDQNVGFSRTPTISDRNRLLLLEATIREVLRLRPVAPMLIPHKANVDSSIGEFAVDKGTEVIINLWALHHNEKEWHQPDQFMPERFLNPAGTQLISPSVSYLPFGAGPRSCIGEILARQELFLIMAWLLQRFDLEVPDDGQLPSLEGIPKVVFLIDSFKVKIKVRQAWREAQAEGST
Method: Some compounds were evaluated for their ability to inhibit CYP17 enzyme. A truncated version of human CYP17A1 (CYP171dH) was expressed in E. coli and then purified to homogeneity.

LNCaP cells = test: MTT colorimetric anti-proliferative assay; format: cell-based, human
Method: The cells were treated for 7 days with renewal of test compound and media on day 4. On the 7th day, medium was renewed and MTT (3-(4,5-dimethylthiazol-2-yl)-2,5-diphenyl-2H-tetrazolium bromide) (Sigma, St Louis, Mo., USA) solution (0.5 mg MTT per ml of media) was added to the medium such that the ratio of MTT: medium was 1:10. The cells were incubated with MTT for 2 hours. The medium was then aspirated and DMSO was added to solubilize the violet MTT-formazan product.

AR in LNCaP cells = target: T2, AR in LNCaP cells (Homo sapiens, UniProt P10275, T878A); test: Whole cell competitive binding assay with [3H]R1881; conditions: 30 µM
T2 sequence (P10275 1-920 T878A): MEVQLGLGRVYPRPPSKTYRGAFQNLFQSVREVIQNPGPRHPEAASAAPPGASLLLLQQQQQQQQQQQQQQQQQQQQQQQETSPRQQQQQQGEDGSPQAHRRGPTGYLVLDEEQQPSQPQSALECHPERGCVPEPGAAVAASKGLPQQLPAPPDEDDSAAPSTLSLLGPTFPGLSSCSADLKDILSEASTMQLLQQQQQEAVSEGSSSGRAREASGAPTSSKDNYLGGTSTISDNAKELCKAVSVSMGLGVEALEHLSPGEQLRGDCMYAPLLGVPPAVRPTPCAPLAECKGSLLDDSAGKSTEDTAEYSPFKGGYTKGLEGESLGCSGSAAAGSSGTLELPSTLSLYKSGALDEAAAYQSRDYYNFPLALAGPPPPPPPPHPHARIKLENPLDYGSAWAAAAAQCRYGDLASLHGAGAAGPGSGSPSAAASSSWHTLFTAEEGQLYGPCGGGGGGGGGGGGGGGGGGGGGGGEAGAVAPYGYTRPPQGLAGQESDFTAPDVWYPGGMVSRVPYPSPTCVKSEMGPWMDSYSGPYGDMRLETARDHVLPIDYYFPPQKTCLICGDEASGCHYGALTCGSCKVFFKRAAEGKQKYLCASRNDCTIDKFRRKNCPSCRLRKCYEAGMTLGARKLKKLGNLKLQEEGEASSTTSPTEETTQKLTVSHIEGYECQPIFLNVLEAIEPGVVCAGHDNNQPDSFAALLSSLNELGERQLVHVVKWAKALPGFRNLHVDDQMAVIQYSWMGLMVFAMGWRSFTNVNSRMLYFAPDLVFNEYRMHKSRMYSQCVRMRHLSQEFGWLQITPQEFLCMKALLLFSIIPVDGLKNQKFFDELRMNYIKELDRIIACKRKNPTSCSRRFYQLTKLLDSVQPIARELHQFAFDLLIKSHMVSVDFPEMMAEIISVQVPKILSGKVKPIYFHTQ
Method: The androgen receptor competitive binding assays were performed with the synthetic androgen methyltrienolone [^3H]R1881. […] To determine the kinetics of [^3H]R1881 binding to the LNCaP AR cells were plated (2-3×10^5 cells/well) in 24 well multiwell dishes in steroid-free medium and allowed to attach. […] Following a 2 hour incubation period at 37° C., cells were washed twice with ice-cold DPBS and solubilized in DPBS containing 0.5% SDS and 20% glycerol. Extracts were removed and cell associated radioactivity counted in a scintillation counter. The data was analyzed, including Kd and Bmax determination, by nonlinear regression using Graphpad Prism software (GraphPad Software, Inc, San Diego, Calif.). When the concentration of [^3H]R1881 required to almost saturate AR in both cell lines was established (5.0 nM), the ability of the test compounds (1 nM-10 μM) to displace [^3H]R1881 (5.0 nM) from the receptors was determined as described above. The IC50 of each compound was determined by nonlinear regression with Graphpad Prism software (GraphPad Software, Inc, San Diego, Calif.).

AR = target: T3, AR (Homo sapiens, UniProt P10275, T878A); test: AR down-regulation, western blot analysis in LNCaP cells; format: cell-based; conditions: 24 h, western blot
T3 construct: host or cells: LNCaP
T3 sequence (P10275 1-920 T878A): T2 sequence (P10275 1-920 T878A)
Method: (§1) For the Western blot analyses, LNCaP or CWR22v1 prostate cancer cells were cultured. The cells were then treated with the indicated compounds and whole cell lysates were prepared using RIPA lysis buffer (Sigma Aldrich) and protease and phosphatase inhibitors (Sigma Aldrich). All of the antibodies were ordered from cell signaling technology. Protein content was determined using the Bradford Assay (Bio-Rad, Hercules, Calif., USA). Protein was subjected to SDS-PAGE and transferred onto nitrocellulosemembrane. Membranes were then incubated with secondary antibody (cell signaling technology) at room temperature for 1 hour. Bands were visualized by chemiluminescence (Millipore). Protein expression was normalized to β-actin and densitometry was carried out using Image J or ImageQuant 5.0 (Molecular Dynamics, Sunnyvale, Calif., USA). CWR22Rv1 cells were used for endogenous levels of splice variant AR-3. Protein levels were analyzed with respective antibodies; full length AR and β-actin antibodies were purchased from cell signaling, antibody specific for splice variant AR-3 was obtained from Dr. Yun Qiu, University of Maryland, School of Medicine, Baltimore.

full-length AR = test: Down-regulation of full-length AR, western blot in CWR22rv1 cells; format: cell-based, human; conditions: CWR22rv1 prostate cancer cell line
Method: (§2) Due to the potential implication of AR splice variants lacking the ligand-binding domain (truncated AR) in driving the progression of CRPC, the effects of the compounds on the down-regulation of AR-3 (also called AR-V7) were determined.
as §1, with “USA).” for “USA). CWR22Rv1 cells were used for endogenous levels of splice variant AR-3. Protein levels were analyzed with respective antibodies; full length AR and β-actin antibodies were purchased from cell signaling, antibody specific for splice variant AR-3 was obtained from Dr. Yun Qiu, University of Maryland, School of Medicine, Baltimore.”

AR-3 (also called AR-V7) = target: T4, AR-3 (also called AR-V7) (Homo sapiens, UniProt P10275); test: Down-regulation of truncated AR splice variant, western blot in CWR22rv1 cells; format: cell-based; conditions: CWR22rv1 prostate cancer cell line
T4 construct: endogenous in cells; host or cells: CWR22Rv1
T4 sequence (P10275 1-644 isoform P10275-3): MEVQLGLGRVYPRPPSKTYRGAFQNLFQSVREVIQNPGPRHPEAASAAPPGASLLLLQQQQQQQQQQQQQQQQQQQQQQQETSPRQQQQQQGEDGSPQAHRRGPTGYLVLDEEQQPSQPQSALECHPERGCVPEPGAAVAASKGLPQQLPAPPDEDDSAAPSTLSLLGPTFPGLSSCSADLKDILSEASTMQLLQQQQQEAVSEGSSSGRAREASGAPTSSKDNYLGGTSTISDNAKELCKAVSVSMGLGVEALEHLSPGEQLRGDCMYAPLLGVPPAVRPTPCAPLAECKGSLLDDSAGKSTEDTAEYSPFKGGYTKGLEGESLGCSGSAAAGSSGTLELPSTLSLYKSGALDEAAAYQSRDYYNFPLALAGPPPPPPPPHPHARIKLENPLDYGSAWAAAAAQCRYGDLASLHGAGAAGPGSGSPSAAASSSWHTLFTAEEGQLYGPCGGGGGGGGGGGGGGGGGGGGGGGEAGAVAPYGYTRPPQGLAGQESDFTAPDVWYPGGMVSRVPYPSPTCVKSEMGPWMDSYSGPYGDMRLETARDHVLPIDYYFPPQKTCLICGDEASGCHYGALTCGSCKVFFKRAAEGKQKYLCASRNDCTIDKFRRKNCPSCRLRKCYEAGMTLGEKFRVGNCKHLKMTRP
Method: as §2
as §1, with “USA).” for “USA). CWR22Rv1 cells were used for endogenous levels of splice variant AR-3. Protein levels were analyzed with respective antibodies; full length AR and β-actin antibodies were purchased from cell signaling, antibody specific for splice variant AR-3 was obtained from Dr. Yun Qiu, University of Maryland, School of Medicine, Baltimore.”

[2] = each in duplicate, from dose-response curves
[3] = Homo sapiens, LNCaP, 168 h, LNCaP, MTT, 7 days, Table 2, read-out: GI50 of C-17 modified compounds
[4] = Homo sapiens, LNCaP, 168 h, LNCaP, MTT, 7 days, Table 4, read-out: GI50 of C-3 modified compounds

**Q.** Which “solubility in ethanol or DMSO” value [1] does the source give for `C[C@]12CC[C@H](OC(=O)c3cccnc3)CC1=CC[C@@H]1[C@@H]2CC[C@]2(C)C(n3cnc4ccccc43)=CC[C@@H]12` [Compound 42, 3β-(Pyridine-3-carboxylate)-17-(1H-benzimidazol-1-yl)-androsta-5,16-diene] here?
**A.** limited solubilities in ethanol or DMSO

**Q.** For `C[C@]12CC[C@H](O)CC1=CC[C@@H]1[C@@H]2CC[C@]2(C)C(c3cccnc3)=CC[C@@H]12` [Abiraterone alcohol (3b), abiraterone alcohol, reference compound], which IC50 (human CYP17A1 (CYP171dH); [2]) is on record?
**A.** 0.206 µM

**Q.** What about the GI50 (LNCaP cells; LNCaP, MTT, 7 days, Table 2, read-out: GI50 of C-17 modified compounds) of the same compound?
**A.** 1.97 µM

**Q.** For `C[C@]12CC[C@H](OC(=O)c3ccncc3)CC1=CC[C@@H]1[C@@H]2CC[C@]2(C)C(n3cnc4ccccc43)=CC[C@@H]12` [Compound 43, 3β-(Pyridine-4-carboxylate)-17-(1H-benzimidazol-1-yl)-androsta-5,16-diene], which GI50 (LNCaP cells; read-out: GI50 of C-3 modified compounds) is on record?
**A.** 2.57 µM

**Q.** What about the “inhibition of [3H]R1881 binding / displacement” value (AR in LNCaP cells) of the same compound?
**A.** ~53%

**Q.** Which “AR down-regulation (ARD) activity, in words” value (AR) does the source give for `COc1ccc(NCC2=C(n3cnc4ccccc43)[C@@]3(C)CC[C@H]4[C@@H](CC=C5C[C@@H](O)CC[C@@]54C)[C@@H]3C2)cc1OC` [Compound 31, 3β-Hydroxy-17-(1H-benzimidazol-1-yl)-16-(((3,4-dimethoxyphenyl)amino)methyl)-androsta-5,16-diene] here?
**A.** significant loss of ARD

**Q.** What about the “down-regulation of full-length AR” value (full-length AR) of the same compound?
**A.** significant down-regulation

**Q.** What about the “down-regulation of truncated AR (AR-3)” value (AR-3 (also called AR-V7)) of the same compound?
**A.** significant down-regulation

**Q.** And the GI50 (LNCaP cells; Homo sapiens, LNCaP, 168 h, LNCaP cells, MTT, 7 days, Table 3, read-out: GI50 of C-16 modified compounds)?
**A.** > 100 µM

**Q.** With `C[C@]12CC[C@H](O)CC1=CC[C@@H]1[C@@H]2CC[C@]2(C)C(n3cnc4ccccc43)=CC[C@@H]12` [Compound 5, 3β-Hydroxy-17-(1H-benzimidazol-1-yl)-androsta-5,16-diene, reference compound] as the compound, how does the “down-regulation of full-length AR” value (full-length AR) read?
**A.** significant down-regulation

**Q.** What about the IC50 (human CYP17A1 (CYP171dH); [2]) of the same compound?
**A.** 0.752 µM

**Q.** What about the GI50 (LNCaP cells; [3]) of the same compound?
**A.** 3.35 µM

**Q.** With `C[C@]12CCC(=NO)C=C1CC[C@@H]1[C@@H]2CC[C@]2(C)C(n3cnc4ccccc43)=CC[C@@H]12` (mixture of isomers) [Compound 36, 3-((EZ)-Hydroximino)-17-(1H-Benzimidazol-1-yl)-androsta-4,16-diene] as the compound, how does the “down-regulation of full-length AR” value (full-length AR) read?
**A.** significant down-regulation

**Q.** What about the “down-regulation of truncated AR (AR-3)” value (AR-3 (also called AR-V7)) of the same compound?
**A.** significant down-regulation

**Q.** And the IC50 (human CYP17A1 (CYP171dH); [2])?
**A.** 93.7 to 258 µM and 258 µM

**Q.** And the GI50 (LNCaP cells; [4])?
**A.** 1.91 µM

**Q.** With `C[C@]12CC[C@H](OC(=O)c3ccccn3)CC1=CC[C@@H]1[C@@H]2CC[C@]2(C)C(n3cnc4ccccc43)=CC[C@@H]12` [Compound 41, 3β-(Pyridine-2-carboxylate)-17-(1H-benzimidazol-1-yl)-androsta-5,16-diene] as the compound, how does the “solubility in ethanol or DMSO” value [1] read?
**A.** limited solubilities in ethanol or DMSO

**Q.** Which “solubility in ethanol or DMSO” value [1] does the source give for `C[C@]12CCC(=NOc3ccccc3)C=C1CC[C@@H]1[C@@H]2CC[C@]2(C)C(n3cnc4ccccc43)=CC[C@@H]12` (mixture of isomers) [Compound 37, 3-((EZ)—O-Phenyloxime)-17-(1H-Benzimidazol-1-yl)-androsta-4,16-diene] here?
**A.** limited solubility in ethanol or DMSO

**Q.** Which IC50 (human CYP17A1 (CYP171dH); [2]) does the source give for `Cc1nccn1C(=O)O[C@H]1CC[C@@]2(C)C(=CC[C@@H]3[C@@H]2CC[C@]2(C)C(n4cnc5ccccc54)=CC[C@@H]32)C1` [Compound 48, 3β-(2-Methyl-1H-imidazole-1-carboxylate)-17-(1H-benzimidazol-1-yl)-androsta-5,16-diene] here?
**A.** 93.7 to 258 µM and 93.7 µM

**Q.** And the GI50 (LNCaP cells; [4])?
**A.** 5.34 µM

**Q.** What about the “fold decrease in anti-proliferative activity” value (LNCaP cells; relative to 47) of the same compound?
**A.** 6 fold

**Q.** And the melting point?
**A.** 186 to 187 °C

**Q.** What does the source list for `C[C@]12CC[C@H](O)CC1=CC[C@@H]1[C@@H]2CC[C@]2(C)C(n3ccc4ccccc43)=CC[C@@H]12` [Compound 16, 3β-Hydroxy-17-(1H-indol-1-yl)-androsta-5,16-diene]?
**A.** AR down-regulation (ARD) activity, in words (AR): up-regulation of AR; IC50 (human CYP17A1 (CYP171dH); [2]): 93.7 to 258 µM and 130 µM; GI50 (LNCaP cells; [3]): > 100 µM; melting point: 142 to 145 °C

**Q.** Which IC50 (human CYP17A1 (CYP171dH)) does the source give for `C[C@]12CC[C@H](O)CC1=CC[C@@H]1[C@@H]2CC[C@]2(C)C(n3ccnc3)=CC[C@@H]12` [VN/85-1, 3β-hydroxy-17-(1H-imidazole-1-yl)androsta-5,16-diene, reference compound] here?
**A.** 0.125 µM
